Laboratory results as given in patent US6395913B1, “Recovery and purification of 3,4-epoxy-1-butene” (Eastman Chemical Company, priority 2001, dated 2002).

Columns and labels:
Format in all cases: physicochemical
[1] = Extraction affinity of water-immiscible solvents: distribution coefficients against a standard water/3-buten-1,2-diol/epoxybutene solution; conditions: room temperature; for Distribution Coefficients Epoxy-Butene: 1 part solvent : 1 part standard solution (35% water/65% diol with approx. 10 wt% epoxybutene), GC analysis, ONE PHASE = no phase separation; for Distribution Coefficients Solvent / Distribution Coefficients Water / Distribution Coefficients Diol: 1 part solvent : 1 part standard water-diol-epoxybutene solution; for Distribution Coefficients Diol: diol = 3-buten-1,2-diol
Experimental: This example compares the extraction affinity of various water-immiscible solvents for epoxybutene in the presence of aqueous absorbent mixtures, as occurs in the extraction zone of both embodiments of this invention. A standard mixture of 35% water and 65% 3-buten-1,2-diol (diol) was prepared. […] For each candidate extractant solvent specified in Table 1, one part by weight water-immiscible solvent was added to one part standard water-diol-epoxybutene solution in a separatory funnel. The mixture was vigorously shaken, allowed to settle, then separated into two liquid phases at room temperature. The aqueous and organic layers from the decantation were analyzed by gas chromatography to determine the composition of each layer. From these compositions, distribution coefficients were calculated for epoxybutene, water, diol, and the candidate extractant as follows: [formula]

[2] = Rate of epoxybutene hydrolysis as a function of pH
From the text: Epoxybutene reacts readily with nucleophiles such as water and alcohols to form 3-butene-1,2-diol and glycol ethers, respectively. However, the relative rate of epoxybutene reaction with nucleophiles is a function of pH. Epoxybutene, like other epoxides, undergoes both acid and base catalysis. Acid catalysis has the larger influence on the rate of reaction. For example, the rate of epoxybutene hydrolysis is over 500 times greater at pH 3 than at pH 7. At pH 11, the rate is over 17 times greater than at pH 7. Since it is desirable to minimize epoxybutene losses due to reaction with nucleophiles, EpB reactivity can be reduced by maintaining the epoxybutene-laden solution at or near a pH of about 7 to 8. This can be done by adding a basic compound to the recovery system. Generally the process gas from the reactor contains ppm levels of formic acid and other organic acids. Thus, any basic material which is capable of neutralizing organic acids may be used in the present process. […]

[3] = Epoxybutene loss by reaction (hydrolysis) during continuous distillation; conditions: for epoxybutene present in the feed reacted to form 1,2-diol and higher diol oligomers: about 1 bar
Experimental: The distillation was conducted in a silvered, vacuum-jacketed glass Oldershaw column, equipped with a liquid-dividing distillation head, feed tray, reflux magnet, reflux timer, cooling water condenser, jacketed reboiler, pressure gage, and nitrogen purge line. The column was configured with a 15-plate stripping section, a 10-plate rectifying section, and a 500 ml jacketed flask heated by a thermostatted circulating oil bath. Feed to the column was supplied from a 5-liter jacketed vessel via a piston pump and bottoms take-off was removed via a second piston pump. The bottoms product was cooled in a small water-chilled stainless steel heat exchanger placed in line on the suction side of the pump. The distillate product flowed by gravity to a jacketed cooled receiver, which also functioned as a phase decanter. Thermocouples were provided at the reboiler, and distillation head. The continuous run lasted about 12 hours in duration with a total feed of about 1192 grams. A reflux ratio of 1:1 was employed. The column was operated at about 1 bar absolute pressure. During steady state operation the average distillate composition comprised about 16% water, 84% epoxybutene, and less than 0.01% 1,2-diol. The distillate separated into two liquid phases upon settling. The average bottoms product comprised 59.2% water, less than 0.2% epoxybutene, and 39.9% 1,2-diol. Approximately 66% of the epoxybutene present in the feed reacted to form 1,2-diol and higher diol oligomers and 93% of the unreacted epoxybutene was recovered in the distillate.
The distillation was conducted in a silvered, vacuum-jacketed glass Oldershaw column, equipped with a liquid-dividing distillation head, feed tray, reflux magnet, reflux timer, cooling water condenser, jacketed reboiler, pressure gage, and nitrogen purge line. The column was configured with a 15-plate stripping section, a 10-plate rectifying section, and a 500 ml jacketed flask heated by a thermostatted circulating oil bath. Feed to the column was supplied from a 5-liter jacketed vessel via a piston pump and bottoms take-off was removed via a second piston pump. The product removed from the base of the column was cooled in a small water-chilled stainless steel heat exchanger placed in line on the suction side of the pump. The distillate product flowed by gravity to a jacketed cooled receiver, which also functioned as a phase decanter. Thermocouples were provided at the reboiler, and distillation head. The continuous run lasted about 10 hours in duration with a total feed of about 3028 grams. A reflux ratio of 3:1 was employed. The column was operated at about 1 bar absolute pressure. During steady state operation the average distillate composition comprised about 20.4% water, 79.4% epoxybutene, and less than 0.2% 1,2-diol. […]

Compound | Distribution Coefficients Epoxy-Butene [1] | Distribution Coefficients Solvent [1] | Distribution Coefficients Water [1] | Distribution Coefficients Diol [1] | also measured
c1ccc2c(c1)CCCC2 [1,2,3,4-Tetrahydronaphthalene] | 1.91 | 51.8 | 0.010 | 0.021 | 
Clc1ccccc1Cl [1,2-Dichlorobenzene] | 3.91 | 54.4 | 0.002 | 0.007 | 
CC(C)c1cccc(C(C)C)c1 [1,3-Diisopropylbenzene] | 1.92 | 329 | 0.001 | 0.004 | 
Cc1cccc2ccccc12 [1-Methylnaphthalene] | 3.10 | 101 | 0.002 | 0.006 | 
CC(C)C(=O)OCC(C)(C)C(OC(=O)C(C)C)C(C)C (stereo not drawn) [2,2,4-Trimethyl-1,3-Pentanediol Diisobutyrate] | 2.19 | 124 | 0.012 | 0.027 | 
CCCCC(CC)CO (stereo not drawn) [2-Ethylhexanol] | ONE PHASE |  |  |  | 
COCC(C)OC(C)=O (stereo not drawn) [2-Methoxy-1-Methylethyl Acetate] | ONE PHASE |  |  |  | 
CCCC(C)=O [2-Pentanone] | ONE PHASE |  |  |  | 
CCC(O)CC [3-Pentanol] | ONE PHASE |  |  |  | 
CCC(=O)CC [3-Pentanone] | ONE PHASE |  |  |  | 
CCCCOC(=O)CC [Butyl Propionate] | 3.96 | 14.1 | 0.042 | 0.115 | 
ClC(Cl)Cl [Chloroform] | 8.73 | 8.33 | 0.024 | 0.106 | 
C1CCCCC1 [Cyclohexane] | 2.09 | 215 | 0.001 | 0.000 | 
O=C1CCCCC1 [Cyclohexanone] | ONE PHASE |  |  |  | 
C[S+](C)[O-] [Dimethylsulfoxide] | ONE PHASE |  |  |  | 
CC(C)COC(=O)C(C)C [Isobutyl isobutyrate] | 3.49 | 34.4 | 0.022 | 0.065 | 
CC(=O)OCCC(C)C [Isopentyl Acetate] | 2.80 | 25.6 | 0.073 | 0.181 | 
CC1=CC(=O)CC(C)(C)C1 [Isophorone] | ONE PHASE |  |  |  | 
C=C(C)[C@H]1CC=C(C)CC1 [Limonene] | 2.28 | 352 | 0.001 | 0.003 | 
COC(=O)c1ccccc1 [Methyl Benzoate] | 2.84 | 6.66 | 0.076 | 0.155 | 
CC(=O)CC(C)C [Methyl Isobutyl Ketone] | ONE PHASE |  |  |  | 
COC(C)(C)C [Methyl t-Butyl Ether] | ONE PHASE |  |  |  | 
CC1COC(=O)O1 (stereo not drawn) [Propylene Carbonate] | ONE PHASE |  |  |  | 
C=CC1CO1 (stereo not drawn) [epoxybutene, 3,4-epoxy-1-butene] |  |  |  |  | rate of epoxybutene hydrolysis relative to pH 7 ([2]; pH 3 versus pH 7): over 500 times; rate of epoxybutene hydrolysis relative to pH 7 ([2]; pH 11 versus pH 7): over 17 times; epoxybutene present in the feed reacted to form 1,2-diol and higher diol oligomers ([3]; Comparative Example 1: distillation from 45.4% water, 9.1% epoxybutene, 45.5% 1,2-diol): Approximately 66%; epoxybutene present in the feed reacted to form 1,2-diol and higher diol oligomers ([3]; Example 6: distillation from p-xylene extract): Less than 0.5%; epoxybutene present in the feed reacted to form 1,2-diol and higher diol oligomers ([3]; Example 7: distillation from isobutyl isobutyrate extract): Less than 0.4%; percent epoxybutene loss ([3]; Example 11: distillation of water-rich layer (96.92% water, 3.0% epoxybutene), feed pH 8 with K2CO3-H3PO4 buffer, 740 Torr): 1.5%
Cc1cccc(C)c1 [m-Xylene] | 2.32 | 1479 | 0.002 | 0.005 | 
CCCCCCCCCC [n-Decane] | 1.06 | 1907 | 0.000 | 0.001 | 
CCCCCCC [n-Heptane] | 1.93 | 851 | 0.001 | 0.001 | 
Cc1ccc(C)cc1 [p-Xylene] | 4.34 | 368 | 0.002 | 0.005 | 
